# Results from the supplement of paper PMC6045584.
# ± gives the standard deviation of the averaged measurements.
# Assays:
# [1] = compound: CC(=O)NCC(=O)N1[C@@H]2CC[C@H]1c1ccc(Nc3ncc(C(F)(F)F)c(NC4CCC4)n3)cc12; experiment: surviving fraction relative to DMSO-only wells; higher = less growth inhibition; conditions: exposure time: 5 days
# Summary of the method: (§1)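 Surviving fraction is CellTiter-Glo luminescence divided by the median of wells given DMSO only. For this, log-phase tumour cell lines went into 384-well plates at 250–500 cells per well and, 24 hours later, into five days of continuous inhibitor exposure at 0.5, 1, 5, 10, 50, 100, 500 and 1000 nM. Lines were screened three times and retained only if replicate Pearson r >0.7 and median Z' >0.3.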
# CAMPTOTHECIN = compound: CC[C@@]1(O)C(=O)OCc2c1cc1n(c2=O)Cc2cc3ccccc3nc2-1 [CAMPTOTHECIN]; experiment: as above; conditions: exposure time: 5 days
# Summary of the method: as §1
Test System,surviving fraction ([1]; 0.5 nM),surviving fraction ([1]; 1 nM),surviving fraction ([1]; 5 nM),surviving fraction ([1]; 10 nM),surviving fraction ([1]; 50 nM),surviving fraction ([1]; 100 nM),surviving fraction ([1]; 500 nM),surviving fraction ([1]; 1000 nM),surviving fraction (CAMPTOTHECIN; 0.5 nM),surviving fraction (CAMPTOTHECIN; 1 nM),surviving fraction (CAMPTOTHECIN; 5 nM),surviving fraction (CAMPTOTHECIN; 10 nM),surviving fraction (CAMPTOTHECIN; 50 nM),surviving fraction (CAMPTOTHECIN; 100 nM),surviving fraction (CAMPTOTHECIN; 500 nM),surviving fraction (CAMPTOTHECIN; 1000 nM)
HELA CERVIX,0.991 ± 0.05,1.02 ± 0.092,0.977 ± 0.051,0.956 ± 0.048,0.697 ± 0.053,0.4 ± 0.052,0.168 ± 0.03,0.142 ± 0.015,0.934 ± 0.062,0.937 ± 0.044,0.967 ± 0.04,1.06 ± 0.014,0.253 ± 0.019,0.373 ± 0.02,0.0667 ± 0.0072,0.0348 ± 0.0013
MDAMB436 BREAST,0.912 ± 0.039,0.875 ± 0.053,0.908 ± 0.033,0.882 ± 0.12,0.937 ± 0.1,0.762 ± 0.079,0.435 ± 0.021,0.391 ± 0.03,0.678 ± 0.074,0.677 ± 0.055,0.391 ± 0.047,0.318 ± 0.048,0.2 ± 0.017,0.177 ± 0.0068,0.142 ± 0.018,0.141 ± 0.022
HU09 BONE,1.05 ± 0.082,1.01 ± 0.03,1.08 ± 0.075,1.11 ± 0.078,0.67 ± 0.024,0.583 ± 0.011,0.3 ± 0.0061,0.179 ± 0.023,0.84 ± 0.015,0.82 ± 0.06,0.311 ± 0.065,0.0673 ± 0.011,0.026 ± 0.0027,0.0207 ± 0.00058,0.0163 ± 0.00058,0.0203 ± 0.0011
NCIH441 LUNG,0.945 ± 0.064,0.954 ± 0.056,0.939 ± 0.065,0.927 ± 0.12,0.991 ± 0.022,0.856 ± 0.049,0.626 ± 0.08,0.588 ± 0.0087,0.951 ± 0.045,0.896 ± 0.03,0.743 ± 0.019,0.474 ± 0.031,0.201 ± 0.02,0.114 ± 0.016,0.0587 ± 0.0095,0.044 ± 0.003
OSHN BONE,1.01 ± 0.028,1 ± 0.029,1 ± 0.025,0.993 ± 0.05,0.991 ± 0.02,0.206 ± 0.0076,0.407 ± 0.036,0.218 ± 0.011,0.83 ± 0.013,0.842 ± 0.007,0.47 ± 0.079,0.108 ± 0.018,0.0807 ± 0.0076,0.0593 ± 0.012,0.0367 ± 0.0083,0.034 ± 0.0044
H23 LUNG,0.971 ± 0.037,0.95 ± 0.015,0.936 ± 0.037,0.931 ± 0.029,0.949 ± 0.04,0.69 ± 0.051,0.471 ± 0.0074,0.421 ± 0.014,0.919 ± 0.02,0.916 ± 0.041,0.56 ± 0.021,0.269 ± 0.0046,0.0917 ± 0.006,0.0627 ± 0.0011,0.0193 ± 0.00058,0.0197 ± 0.00058
CADOES1 SOFT TISSUE,0.969 ± 0.1,0.955 ± 0.099,0.883 ± 0.094,0.849 ± 0.1,0.565 ± 0.074,0.109 ± 0.011,0.0853 ± 0.005,0.0867 ± 0.0065,0.886 ± 0.088,0.818 ± 0.1,0.0943 ± 0.0059,0.0577 ± 0.014,0.045 ± 0.0044,0.0337 ± 0.0064,0.0317 ± 0.0021,0.0297 ± 0.0015
NY BONE,0.962 ± 0.012,0.941 ± 0.029,0.9803 ± 0.0061,0.964 ± 0.03,0.69 ± 0.011,0.672 ± 0.025,0.432 ± 0.025,0.129 ± 0.0021,0.894 ± 0.052,0.905 ± 0.021,0.648 ± 0.026,0.184 ± 0.012,0.067 ± 0.0061,0.0407 ± 0.0015,0.02 ± 0.0017,0.0217 ± 0.0021
JIMT1 BREAST,0.996 ± 0.044,1.01 ± 0.032,1 ± 0.036,0.97 ± 0.02,1.03 ± 0.053,0.763 ± 0.024,0.705 ± 0.0076,0.593 ± 0.029,0.894 ± 0.018,0.893 ± 0.058,0.8377 ± 0.0059,0.655 ± 0.048,0.433 ± 0.024,0.394 ± 0.034,0.066 ± 0.0031,0.0517 ± 0.0014
ZR751 BREAST,0.874 ± 0.18,0.927 ± 0.062,0.923 ± 0.12,0.925 ± 0.04,0.774 ± 0.1,1.04 ± 0.094,0.815 ± 0.062,0.897 ± 0.038,0.774 ± 0.073,0.823 ± 0.12,0.693 ± 0.13,0.586 ± 0.099,0.266 ± 0.024,0.223 ± 0.005,0.121 ± 0.0096,0.0797 ± 0.0025
